{"source": "patent US11299515B2", "about": "“Optimized peptides for targeting human nerves and their use in image guided surgery, diagnostics and therapeutic” (The Regents of the University of California, priority 2017, dated 2022)", "key": {"human sural nerve": {"system": "human sural nerve", "assay": "Topical application of FAM-labelled peptides on human nerve sections", "assay_type": "binding", "details": "for normalized average signal intensity (normalized to FAM-HNP401): 100 μM FAM labelled, human sural nerve sections; for binding / contrast among peptides and controls screened on human nerve: 100 μM topical, sural nerve and temporalis muscle", "source_text": "To determine the affinity of phage selected peptides for binding to human nerve they were chemically synthesized by solid-phase synthesis and labeled with fluorescein at the C-terminus via a GGC linker. Peptides were topically applied to sectioned human sural nerve and human temporalis muscle to determine nerve to muscle contrast. […] To confirm binding and contrast of HNP401 for additional nerve types binding was compared in nerve and muscle with both HNP401 and NP41 on facial brachial plexus nerve (FIG. 9). […] FAM-HNP401 was additionally tested topically on ex-vivo tissue for labeling of mouse facial nerve with surrounding muscle (FIG. 10, J-M).\nTo test the affinity of selected phage display peptides for binding to human nerves, they were chemically synthesized by solid-phase synthesis and labeled with fluorescein at the C-terminus. Peptides were topically applied to sections of surgically harvested human sural nerve and temporalis muscle to determine nerve to muscle contrast for selected peptides and controls (FIG. 23). […] To quantify differential binding to nerve versus muscle, fluorescence signal intensity was measured for ROIs from the perineurium of select nerves and human temporalis muscle.\nHuman sural nerve, antebrachial nerve and laryngeal nerve and temporalis muscle were obtained under IRB protocol number 130837 for Dr. Quyen Nguyen. Human peripheral nerves (typically sural) were obtained from patients undergoing nerve resection procedures. Human nerves from prostate gland of two patients were acquired under Moores Cancer Centre Biorepository IRB protocol number 090401. Tissue were sectioned and mounted on glass slides or Cryojane tape. Tissue sections were placed in a humidifier chamber for 30 min before application of the peptide solution. Peptides were diluted to appropriate concentration in 0.5×HBSS prior to topical application. 50 μl of peptide solution of with known concentration (1 μM to 375 μM) were applied to 10 μm nerve sections on tape or slides and incubated for 30 minutes in a humidifier chamber. After incubation with peptide nerve sections were washed with twice with 0.5×HBSS and once with 1×PBS. A cover-slip was applied and slides were imaged immediately on either a Zeiss Lumar dissecting scope of Nikon A1 confocal microscope. For confocal imaging tissue sections of 10 μm thickness were imaged with 488 nm laser excitation 515 (25) and a 10× air objective and a […] size. For immunohistochemistry the confocal Images were acquired with a 20× air objective at 0.4 μm/pixel.\nImage J was used to analyze and compare images acquired using the confocal microscope and the Lumar dissecting scope. For each experimental set where probes were compared, we kept the acquisition parameters identical so as to directly compare the data obtained. […] All raw image files for a given experimental cohort were loaded at the same time into Image J as 16-bit tiff images. We then levelled the image for tissue treated with FAM-HNP401. Once these levels were set, the settings are propagated to all images in one step using Image J. The brightest image is set as the benchmark for all other images in the cohort to avoid saturating when the leveling is propagated."}, "[1]": {"assay": "Fluorescent plate reader assay of quenching by food dyes", "source_text": "FIG. 21: Food dyes efficiently quench FAM-NP41 bladder fluorescence. A fluorescent plate reader assay was used to show dose dependent quenching of FAM-NP41 fluorescence. Erythrosine extra bluish (Santa Cruz Biotechnology, Inc.) was the most efficient quencher with >80% quenching at 2.5 times dye to fluorescein ratio and >95% quenching at 5× dye to fluorescein ratio (A). Other food dyes tested included Allura Red and Sunset Yellow. To test for quenching in-vivo we administered, by direct iv injection, 50 mg/kg MW 879.76 (^˜1.5 μmoles per 25 gm mouse) to mice that had been injected with 150 nmoles of FAM-NP41 2 hours prior. This represents approximately a 10× dye to FAM-NP41 dose. Some bladder fluorescence remained after imaging so additional dye (30 μl, 10 mM Erythrosin extra bluish) was injected directly into the bladder. Images are shown for mouse bladder with no dye quencher (B) and addition of Erythrosine extra bluish (intravenous and intra bladder) (C) with bladder fluorescence quench to near background level. Dye would likely not be needed if this method was used for human patients as bladder catheterization in patients could be started as FAM-NP41 is administered so bladder fluorescence could be washed out."}, "[2]": {"system": "autonomic nerve within the prostate", "assay": "In-vivo imaging of autonomic nerve within the prostate of rats", "details": "rat prostate cavernosal nerve, live rats"}, "[3]": {"system": "autonomic nerves within the prostate", "assay": "In-vivo imaging of autonomic nerves within the prostate of mice", "details": "rodent models", "protocol": "To visualize the autonomic nerves within the prostate of mice, NP41 peptide conjugated to fluorescein (FAM-NP41) was injected intravenously followed by imaging of prostate and surrounding tissue after surgical resection. Strong fluorescence from dye that rapidly accumulates in the bladder hindered visualization of the nerves within the prostate. To enhance visualization the bladder was surgically drained of urine and sutured prior to imaging. The urethra, an anatomically distinct structure, is never emptied of urine as the mice are alive for the duration of the experiment, resulting in a continuous passage of urine carrying metabolized peptide-dye to the bladder […]. […] To quantify nerve detection a total of 10 mice were injected with 600 nmoles FAM-NP41 and signal intensity was measured for nerve versus adjacent non-nerve tissue using both fluorescence and white light reflectance. Values to the right of the line indicate that there is improved visualization with fluorescence compared to reflected light. […]\nFollowing anesthesia with intra-peritoneal injection of ketamine (80 mg/kg) and midazolam (40 mg/kg), FAM-NP41 or its variants were administered into mice retro-orbitally. […] The autonomic nerve along the cavernosal vessel in the prostate was imaged and recorded using a custom-made surgical imaging system. […]"}, "sciatic nerve [4]": {"system": "sciatic nerve", "assay_type": "in vivo, mice", "protocol": "Either 150 or 450 nmoles of fluorescein labeled synthetic peptides were injected intravenously into mice. After a 2 hour waiting period for washout of nonspecific binding, mice were anesthetized and skin incisions were made over the dorsal surface of the hind legs to expose the sciatic nerve. Brightfield and fluorescent images were obtained with a dissecting microscope using Metamorph software (FIG. 1). Quantitation of fluorescence of nerves and adjacent non-nerve tissue was performed with Image J (FIG. 2). Peptides were also topically applied to human nerve sections. Nerves were freshly frozen in OTC prior to sectioning. Peptides were topically applied at concentration at 300 uM with images being shown for HNP401, HNP402, HNP404 and previous reported nerve binding peptides NP41 (FIG. 3)). Also shown are images for variants HNP301 ([…]) and NP124. NP713 was also tested and has not reported in a publication. NP713, is a derivative of NP41 with sequence […] that was enriched after 7 rounds of selection against mouse tissue, and was also found after 4 rounds of selection against human tissue. […] All D-amino acid controls for NP-41 and NP713 and non peptide conjugated carboxyfluorescein, are also shown. […] HNP401 was then tested for labeling of rat sciatic and rat prostate cavernosal nerve in-vivo. […] FIGS. 6 and 7 show in-vivo labeling of rat prostate cavernosal nerve with comparison to white light visualization.\nFollowing anesthesia with intra-peritoneal injection of ketamine (80 mg/kg) and midazolam (40 mg/kg), FAM-NP41 or its variants were administered into mice retro-orbitally. After a washout period of 2-4 hours, the animals were anesthetized with ketamine (50 mg/ml) and xylazine (20 mg/ml). The bladder and prostate were exposed through a midline abdominal incision. The autonomic nerve along the cavernosal vessel in the prostate was imaged and recorded using a custom-made surgical imaging system. This system is a modified from Olympus MVX10 scope capable of hi-resolution fluorescence, RGB reflectance and realtime overlay with zoom from 0.6 to 5.7 cm field of view. Image) was used for quantitative analysis of nerve contrast for each peptide dye conjugate tested. Images of autonomic nerve in prostate were selected from the recorded files and magnified 300-400% prior to selection of ROI and measurement. Nerves and adjacent non-nerve tissues ROIs were hand-selected using polygonal selection tool at the same location from both of reflectance and fluorescence images. The mean and standard deviation of the pixel intensities within the selected areas were compared for nerves (mean=In, SD=σn) and adjacent background tissue (mean=Ib, SD=σb). Nerve to non-nerve contrast was calculated after background subtraction with formula |In−Ib|/(σn^2+σm^2)^0.5. For imaging the nerves in the prostate gland of male rats peptide dye conjugate were injected retro-orbitally. FAM-HNP401 was injected at a concentration of 13 mgs/kg followed by imaging after 15 minutes or alternatively a dose of 52 mgs/kg was used with imaging after 3 hours. Live animal surgery was performed under a ketamine-xylazine cocktail according to IACUC protocol. Sterile technique was used to expose the prostate; bladder was drained with a small syringe and sutured. The surgical field was washed with sterile saline prior to imaging. Mann-Whitney test was used to analyze data for both mice and rats to compare nerve intensity and nerve to non-nerve contrast between white light reflectance and fluorescence."}, "sciatic nerve [5]": {"system": "sciatic nerve", "details": "live mice, reference [22]; cited from earlier work"}}}
{"compound": "EEPYYVVKKSS [HNP401-N-6, tested FAM labelled]", "values": [{"measurement": "normalized average signal intensity (normalized to FAM-HNP401)", "setting": "human sural nerve", "result": "1.0±0.34"}]}
{"compound": "carboxyfluorescein [reference compound]", "values": [{"measurement": "binding / contrast among peptides and controls screened on human nerve", "setting": "human sural nerve", "result": "only weak non-specific binding"}, {"measurement": "binding / contrast among peptides and controls screened on human nerve", "setting": "human sural nerve; listed as Carboxyfluorescein", "result": "low signal and non-specific binding"}]}
{"compound": "QVPWEEPYYVVKKSS [HNP401-N-2, tested FAM labelled]", "values": [{"measurement": "average signal intensity (nerve binding of deletion variants)", "setting": "human sural nerve; 100 uM FAM labelled, human nerve sections, n=5", "result": "1498.73 (+/−517.63)"}, {"measurement": "normalized average signal intensity (normalized to FAM-HNP401)", "setting": "human sural nerve", "result": "2.02±0.65"}, {"measurement": "Normalized nerve to temporalis muscle contrast, increase with respect to FAM-HNP401", "setting": "human sural nerve; human sural nerve vs temporalis muscle", "result": 3, "unit": "fold"}]}
{"compound": "O.O=C([O-])c1ccccc1-c1c2cc(I)c(=O)c(I)c-2oc2c(I)c([O-])c(I)cc12.[Na+].[Na+]", "note": "[Erythrosine extra bluish]", "values": [{"measurement": "quenching of FAM-NP41 fluorescence", "setting": "[1]; 2.5 times dye to fluorescein ratio", "result": "> 80", "unit": "%"}, {"measurement": "quenching of FAM-NP41 fluorescence", "setting": "[1]; 5× dye to fluorescein ratio", "result": "> 95", "unit": "%"}]}
{"compound": "SHSSEFPRSWDMETN [HNP301]", "values": [{"measurement": "contrast for prostate nerve labeling compared to HNP401", "setting": "[2]", "result": "not showing as much contrast"}]}
{"compound": "SGQVPWEEPYYVVKK [tested FAM labelled]", "values": [{"measurement": "effect of terminal deletion on binding", "setting": "human sural nerve; removal of C-terminal serine", "result": "tolerated"}]}
{"compound": "PYYVVKKSS [HNP401-N-8, tested FAM labelled]", "values": [{"measurement": "normalized average signal intensity (normalized to FAM-HNP401)", "setting": "human sural nerve", "result": "0.98±0.31"}]}
{"compound": "PWEEPYYVVKKSS [HNP401-N-4, tested FAM labelled]", "values": [{"measurement": "normalized average signal intensity (normalized to FAM-HNP401)", "setting": "human sural nerve", "result": "0.56±0.18"}]}
{"compound": "NTQTLAKAPEHT [NP41, reference compound]", "values": [{"measurement": "average increase in nerve to non-nerve signal, fluorescence vs white light reflectance", "setting": "[3]", "result": 17, "unit": "%"}, {"measurement": "contrast (nerve fluorescent intensity/muscle fluorescent intensity)", "setting": "sciatic nerve [4]; 450 nmols, FAM-labelled peptide, living wild type mice, FIG. 2", "result": 6.7, "unit": "fold"}, {"measurement": "washout from nerve", "setting": "sciatic nerve [4]; mouse, in vivo", "result": "little remaining signal after 24 hours"}, {"measurement": "time to almost complete wash out after systemic injection", "setting": "sciatic nerve [5]", "result": "≤ 24", "unit": "h"}]}
